The source of these data is US20250275951A1, “DRUGS TARGETING INFLAMMATION FOR THE TREATMENT OF OSTEOARTHRITIS AND OTHER INFLAMMATORY DISEASES” (The Board of Trustees of the Leland Stanford Junior …, priority 2020, published 2025).

For series [1] the following is noted: in vivo; cited from earlier work.
In the next series the test system is DMM mouse model for OA. The series is described as follows: Cartilage degeneration scoring of safranin-O stained joint sections in DMM mouse model for OA. The format is in vivo.
For series [2], the system named is human OA synovial tissue organoid. Briefly: Human OA synovial tissue organoid stimulation assay (qPCR). The format is cell-based. Particulars: rupatadine 1 μM, fenofibrate 1 μM or both; 24 hr with human OA synovial fluid; vs vehicle. (In qPCR the cycle at which signal appears reflects the starting amount.)
Procedure: Human OA synovium was obtained at the time of arthroplasty and cultured overnight in tissue culture medium with human OA synovial fluid.
The arthroplasty synovium was then washed with media, cut into approximately 2 mm pieces, and individual organoid pieces further stimulated for 24 hr with human OA synovial fluid in the presence of the test small molecule compounds and combinations including: vehicle control; rupatadine 1 μM; fenofibrate 1 μM; or rupatadine 1 μM+fenofibrate 1 μM. The organoids were then harvested, total RNA extracted, reverse transcription performed, followed by qPCR to quantitate levels of RNA encoding the inflammatory lipid PAF biosynthesis enzyme (Ipcat2) gene expression as well as PAF receptor (ptafr) gene expression.

Procedure for DMM mouse model for OA: Histologic outcomes: 20 wks after DMM, mice are sacrificed, and OA assessed histologically by a blinded examiner scoring cartilage degeneration through Safranin-O stained sections, and scoring synovitis and osteophytes through H&E stained sections.
Treatment with pharmacologic agents. Beginning 24 hrs after DMM, mice (n=10 per experimental arm) are treated by injection or oral gavage for 12 wks with either vehicle, or one of the agents as detailed in Table 1.
Histologic analysis. Histologic analysis of mouse stifle joints occurs 20-wks after surgery. Cartilage degeneration is assessed through scoring of Safranin-O stained sections and synovitis and osteophyte formation assessed through scoring of H&E stained sections. Significance was assessed by unpaired 2-tailed Mann-Whitney U test, with *P<0.05, **P<0.01, ***P<0.001.
After 12 weeks of treatment, mice were sacrificed, and the stifle joints harvested for histologic analysis, and safranin-O stained joint tissue sections were scored by a blinded examiner for the degree of cartilage degeneration. […] Significance was assessed by unpaired 2-tailed Mann-Whitney U test, with *P<0.05, **P<0.01, ***P<0.001, N.S. non-significant.
After 12 weeks of treatment, mice were sacrificed, and the stifle joints harvested for histologic analysis, and safranin-O stained joint tissue sections were scored by a blinded examiner for the degree of cartilage degeneration. […] Significance was assessed by unpaired 2-tailed Mann-WhitneyU test, with *P<0.05, **P<0.01, ***P<0.001.
Mice were then sacrificed, and the stifle joints harvested for histologic analysis. (A) Safranin-O stained joint tissue sections were scored by a blinded examiner for the degree of cartilage degeneration. (B) Representative safranin-O stained sections from each group are presented. […] Significance was assessed by unpaired 2-tailed Mann-Whitney U test, with *P<0.05, **P<0.01, ***P<0.001.

As to `O=C1[C@H](CC[C@H](O)c2ccc(F)cc2)[C@@H](c2ccc(O)cc2)N1c1ccc(F)cc1` [Ezetimibe], the Bioavailability entry in series [1] is given as “variable”.
In the case of `CC(C)c1c(C(=O)Nc2ccccc2)c(-c2ccccc2)c(-c2ccc(F)cc2)n1CC[C@@H](O)C[C@@H](O)CC(=O)O` [Atorvastatin], the “prevention of OA (quantification of cartilage degeneration 20 wks post-DMM)” value in the series on DMM mouse model for OA (C57BL/6J wild-type mice, atorvastatin 0.5 mg/kg for 12 wks following DMM vs vehicle, p=0.0513) is given as “does not prevent OA”. In the series on DMM mouse model for OA (mice, dose not given at place), the “development / severity of OA following DMM” value is reported as “failure of atorvastatin to prevent OA”.
For the molecule `CC(C)(Oc1ccc(CCNC(=O)c2ccc(Cl)cc2)cc1)C(=O)O` [Bezafibrate], the Bioavailability in series [1] is given as 100%.
`Cc1ccc(C)c(OCCCC(C)(C)C(=O)O)c1` [Gemfibrozil]: the Bioavailability in series [1] is given as 100%.
As to `CCc1ccc(CCOc2ccc(CC3SC(=O)NC3=O)cc2)nc1` (stereo not shown) [Pioglitazone], the Bioavailability in series [1] is recorded as 83%.
As to `Cc1cncc(CN2CCC(=C3c4ccc(Cl)cc4CCc4cccnc43)CC2)c1` [Rupatadine], in series [2], the “PAF receptor (ptafr) gene expression” value is “decreased” and the “inflammatory lipid PAF biosynthesis enzyme (Ipcat2) gene expression” value is on record as “decreased”. Also, in the series on DMM mouse model for OA (C57Bl/6 mice, oral gavage from 1 week after DMM for 3 months, rupatadine 20 μg, fenofibrate 40 μg, or both), the “severity / development of OA (cartilage degeneration scores)” value is “decreased the severity of OA”. In the series with DMM mouse model for OA (WT mice, vs vehicle (combination also vs either drug alone), Example 1, dose not given at place), the “severity of OA-related cartilage degeneration following DMM” value is given as “significantly less severe OA-related cartilage degeneration”.
